The test system of this experiment is PMA-induced release of IL-6R from PBMCs from healthy donors. Nature of the experiment: ELISA-based IL-6R release assay, PBMCs from healthy donors. It is filed as cell-based. To be noted: Homo sapiens, PBMC; recombinant murine antibodies 1 μg/ml; Batimastat 10 μM; PMA 25 ng/ml, 6 hours. As to the method:
In the following study, ELISA-based IL-6R release assays were performed to analyze the inhibitory effects of the antibodies of the present disclosure on PMA-induced release of endogenous IL-6R from primary human material obtained from healthy donors using peripheral blood mononuclear cells (PBMCs).
In brief, on day 1, Nunc black MaxiSorp® 96-well plates (Thermo Fisher Scientific, USA) were coated overnight with 100 μl per well of mouse anti-human IL-6R capture antibody (provided as part of the DuoSet ELISA kit) at 4 μg/ml TBS at 4° C. On day 2, the capture antibody solution was removed and MaxiSorp® plates were blocked with 300 μl per well of TBS, 1% BSA at room temperature for 3 hours. […] Using an infinite M1000 (Tecan Group, Switzerland) microplate reader, the fluorescence of each well was collected at an excitation wavelength of 435 nm and an emission wavelength of 555 nm.
For orientation: An ELISA detects its analyte on a solid surface through an enzyme-linked reagent.

Consider `CNC(=O)[C@H](Cc1ccccc1)NC(=O)[C@H](CC(C)C)[C@H](CSc1cccs1)C(=O)NO` [Batimastat], for which the inhibition (commonly the relative decrease from the control value, in per cent) at 10 µM is 114%.

These data come from patent publication US20240174744A1, “METHODS OF TREATMENT USING PROTEIN BINDERS TO IRHOM2 EPITOPES” (SCIRHOM GMBH, priority 2021, published 2024).
